Measured values taken from patent US20220315554A1, “COMPOUNDS COMPRISING A […] LIGAND AND USE THEREOF” (priority 2019, published 2022).
pIC50, pKd: −log10 of the molar value. Numbered stars: 1 amine (or outer) side, 2 acyl side, 3 side chain; on linkers, the order of the positions; unused ones are H or OH. Bridge positions count the residues as written; N and C are the ends. Square brackets hold non-standard residues; d marks the D form. Peptide text beside a SMILES is read from it. * marks the point of attachment. TBMB(SCH2CH2NH-DOTA) = O=C(O)CN1CCN(CC(=O)O)CCN(CC(=O)NCCSCc2cc(C[*:1])cc(C[*:2])c2)CCN(CC(=O)O)CC1; X1 = O=C(O)CN1CCN(CC(=O)O)CCN(CC(=O)N2CCN(Cc3cc(C[*:1])cc(C[*:2])c3)CC2)CCN(CC(=O)O)CC1; Phe(2-CF3) = N[C@@H](Cc1ccccc1C(F)(F)F)C(=O)O; Pentanesulfonyl = CCCCCS(=O)(=O)*; Hexanoyl = CCCCCC(=O)*; Sar = CNCC(=O)O

Experiments:
[1] = target: T1, FAP-expressing human WI-38 fibroblasts (Homo sapiens, UniProt Q12884); experiment: Competitive FACS binding assay; conditions: pIC50 Category (FACS), competition with 3 nM Cy5-labeled compound, 4° C., 1 hour
T1 construct: FAP-expressing human WI-38 fibroblasts (ECACC) were cultured in EMEM; host or cells: WI-38 human fibroblasts
T1 sequence (Q12884 1-760): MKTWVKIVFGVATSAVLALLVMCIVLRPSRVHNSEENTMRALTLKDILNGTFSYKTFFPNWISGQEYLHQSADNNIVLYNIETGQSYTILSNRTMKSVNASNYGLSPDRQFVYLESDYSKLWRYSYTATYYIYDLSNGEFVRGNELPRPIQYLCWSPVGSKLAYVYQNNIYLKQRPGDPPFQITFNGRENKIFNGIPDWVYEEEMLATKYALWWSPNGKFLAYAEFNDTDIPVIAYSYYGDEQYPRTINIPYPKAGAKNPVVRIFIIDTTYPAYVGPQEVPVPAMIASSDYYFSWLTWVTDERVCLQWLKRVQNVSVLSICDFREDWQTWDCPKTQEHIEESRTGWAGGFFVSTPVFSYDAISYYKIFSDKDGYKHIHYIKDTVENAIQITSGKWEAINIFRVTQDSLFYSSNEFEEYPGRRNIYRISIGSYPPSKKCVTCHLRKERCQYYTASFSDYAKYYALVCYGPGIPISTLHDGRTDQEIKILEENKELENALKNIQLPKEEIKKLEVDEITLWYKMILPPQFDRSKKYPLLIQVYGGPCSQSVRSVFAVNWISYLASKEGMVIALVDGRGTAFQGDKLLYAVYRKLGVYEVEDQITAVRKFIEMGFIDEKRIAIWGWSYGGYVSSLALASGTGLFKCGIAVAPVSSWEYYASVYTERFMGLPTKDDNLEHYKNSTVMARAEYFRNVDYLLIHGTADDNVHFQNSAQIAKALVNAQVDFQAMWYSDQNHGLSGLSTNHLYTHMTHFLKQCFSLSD
Description: Cells were analyzed in an Attune NxT flow cytometer. […]

Human recombinant FAP [2] = target: T2, Human recombinant FAP (Homo sapiens, UniProt Q12884); experiment: Surface plasmon resonance (Biacore) assay; type: binding
T2 sequence (Q12884 1-760): T1 sequence (Q12884 1-760)

Human recombinant FAP [3] = target: T2, Human recombinant FAP; experiment: FRET-based FAP protease activity assay; type: biochemical; parameters: purchased R&D systems 3715-SE; conditions: pIC50 Category (Activity), FRET substrate, 37° C.

CCCCCC(=O)N[C@H]1CSCc2cc(CSCCNC(=O)CN3CCN(CC(=O)O)CCN(CC(=O)O)CCN(CC(=O)O)CC3)cc(c2)CSC[C@@H](C(=O)N[C@H](CC(=O)O)Cc2ccccc2)NC(=O)[C@H](Cc2ccccc2)NC(=O)[C@H](CCC(N)=O)NC(=O)[C@H]([C@@H](C)O)NC(=O)[C@@H]2CCCN2C(=O)[C@@H]2CCCN2C1 [3BP-3660, Hex-[Cys(tMeBn(DOTA-AET))-Pro-Pro-Thr-Gln-Phe-Cys]-Bhf-OH]
> 8.00: pIC50 [1] | pKd (Human recombinant FAP [2]) | pIC50 (Human recombinant FAP [3])

CCCCCC(=O)N[C@H]1CSCc2cc(CSCCNC(=O)CN3CCN(CC(=O)O)CCN(CC(=O)O)CCN(CC(=O)O)CC3)cc(c2)CSC[C@@H](C(=O)N[C@@H](CC(=O)O)C(=O)O)NC(=O)[C@H](Cc2ccccc2)NC(=O)[C@H](CCC(N)=O)NC(=O)[C@H]([C@@H](C)O)NC(=O)[C@@H]2CCCN2C(=O)[C@@H]2CCCN2C1=O [3BP-3665, Hex-[Cys(tMeBn(DOTA-AET))-Pro-Pro-Thr-Gln-Phe-Cys]-Asp-OH] (Hexanoyl-CPPTQFCD-OH; linker 1-7 via TBMB(SCH2CH2NH-DOTA))
> 8.00: pIC50 [1] | pKd (Human recombinant FAP [2]) | pIC50 (Human recombinant FAP [3])

CCCCCC(=O)N[C@H]1CSCc2cc(CSCCNC(=O)CN3CCN(CC(=O)O)CCN(CC(=O)O)CCN(CC(=O)O)CC3)cc(c2)CSC[C@@H](C(=O)O)NC(=O)[C@H](Cc2ccccc2)NC(=O)[C@H](CCC(N)=O)NC(=O)[C@H]([C@@H](C)O)NC(=O)[C@@H]2CCCN2C(=O)[C@@H]2CCCN2C1 [3BP-3678, Hex-[Cys(tMeBn(DOTA-AET))-Nmg-Pro-Thr-Gln-Phe-Cys]-OH]
> 8.00: pIC50 [1] | pKd (Human recombinant FAP [2]) | pIC50 (Human recombinant FAP [3])

CCCCCC(=O)N[C@H]1CSCc2cc(CSCCNC(=O)CN3CCN(CC(=O)O)CCN(CC(=O)O)CCN(CC(=O)O)CC3)cc(c2)CSC[C@@H](C(=O)O)NC(=O)[C@H](Cc2ccccc2)NC(=O)[C@H](CCC(N)=O)NC(=O)[C@H]([C@@H](C)O)NC(=O)[C@@H]2C[C@@H](O)CN2C(=O)[C@@H]2CCCN2C1 [3BP-3679, Hex-[Cys(tMeBn(DOTA-AET))-Pro-Hyp-Thr-Gln-Phe-Cys]-OH]
> 8.00: pIC50 [1] | pKd (Human recombinant FAP [2]) | pIC50 (Human recombinant FAP [3])

CCCCCC(=O)N[C@H]1CSCc2cc(CSCCNC(=O)CN3CCN(CC(=O)O)CCN(CC(=O)O)CCN(CC(=O)O)CC3)cc(c2)CSC[C@@H](C(=O)O)NC(=O)[C@H](Cc2ccccc2C(F)(F)F)NC(=O)[C@H](CCC(N)=O)NC(=O)[C@H]([C@@H](C)O)NC(=O)[C@@H]2CCCN2C(=O)CN(C)C1=O [3BP-3680, Hex-[Cys(tMeBn(DOTA-AET))-Pro-Pro-Thr-Gln-Otf-Cys]-OH] (Hexanoyl-C[Sar]PTQ[Phe(2-CF3)]C-OH; linker 1-7 via TBMB(SCH2CH2NH-DOTA))
> 8.00: pIC50 [1] | pKd (Human recombinant FAP [2]) | pIC50 (Human recombinant FAP [3])

CCCCCS(=O)(=O)N[C@H]1CSCc2cc(CSCCNC(=O)CN3CCN(CC(=O)O)CCN(CC(=O)O)CCN(CC(=O)O)CC3)cc(c2)CSC[C@@H](C(=O)O)NC(=O)[C@H](Cc2ccccc2)NC(=O)[C@H](CCC(N)=O)NC(=O)[C@H]([C@@H](C)O)NC(=O)[C@@H]2CCCN2C(=O)[C@@H]2CCCN2C1=O [3BP-3690, Pentyl-SO2-[Cys(tMeBn(DOTA-AET))-Pro-Pro-Thr-Gln-Phe-Cys]-OH]
> 8.00: pIC50 [1] | pKd (Human recombinant FAP [2]) | pIC50 (Human recombinant FAP [3])

CCCCCS(=O)(=O)N[C@H]1CSCc2cc(cc(CN3CCN(C(=O)CN4CCN(CC(=O)O)CCN(CC(=O)O)CCN(CC(=O)O)CC4)CC3)c2)CSC[C@@H](C(=O)N[C@@H](CC(=O)O)C(=O)O)NC(=O)[C@H](Cc2ccccc2)NC(=O)[C@H](CCC(N)=O)NC(=O)[C@H]([C@@H](C)O)NC(=O)[C@@H]2CCCN2C(=O)[C@@H]2CCCN2C1=O [3BP-3692, Pentyl-SO2-[Cys(tMeBn(DOTA-PP))-Pro-Pro-Thr-Gln-Phe-Cys]-Asp-NH2] (Pentanesulfonyl-CPPTQFCD-OH; linker 1-7 via X1)
> 8.00: pIC50 [1] | pKd (Human recombinant FAP [2]) | pIC50 (Human recombinant FAP [3])
